Measurements taken from ChEMBL document CHEMBL1201862, “PubChem BioAssay data set” (2004).
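Where inhibition never reached the appropriate level, the endpoint shown equals the highest concentration tested. Otherwise, values were interpolated linearly from a five-concentration, 48-hour dose response in 96-well plates. GI50 is the concentration that inhibits growth by half.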 The source made the active and inactive calls. No stated cut-off is given here; in the data, active = GI50 up to about 1.1 µM and inactive = higher.

Legend:
Assay in all cases: NCI tumour cell line growth inhibition, 48 h
ACHN = test system: ACHN
CAKI-1 = test system: CAKI-1
HCT-15 = test system: HCT-15
HL-60 = test system: HL-60
KM12 = test system: KM12
LOX IMVI = test system: LOX IMVI
NCI-H522 = test system: NCI-H522
OVCAR-4 = test system: OVCAR-4
RXF 393 = test system: RXF 393
SNB-75 = test system: SNB-75
SR = test system: SR
UACC-257 = test system: UACC-257
UACC-62 = test system: UACC-62
UO-31 = test system: UO-31
DU-145 = test system: DU-145
Hs-578T = test system: Hs-578T
MDA-MB-231 = test system: MDA-MB-231
NCI/ADR-RES = test system: NCI/ADR-RES
T47D = test system: T47D

| SMILES | GI50 (ACHN) | GI50 (CAKI-1) | GI50 (HCT-15) | GI50 (HL-60) | GI50 (KM12) | GI50 (LOX IMVI) | GI50 (NCI-H522) | GI50 (OVCAR-4) | GI50 (RXF 393) | GI50 (SNB-75) | GI50 (SR) | GI50 (UACC-257) | GI50 (UACC-62) | GI50 (UO-31) | GI50 (DU-145) | GI50 (Hs-578T) | GI50 (MDA-MB-231) | GI50 (NCI/ADR-RES) | GI50 (T47D) |
| --- | --- | --- | --- | --- | --- | --- | --- | --- | --- | --- | --- | --- | --- | --- | --- | --- | --- | --- | --- |
| CN(C)CCNC(=O)c1cccc2ccc(-c3ccc(-c4ccccc4)cc3)nc12 | 5.47 µM (inactive) | 5.13 µM (inactive) | 1.98 µM | 1.93 µM (inactive) | 2.09 µM (inactive) | 1.63 µM (inactive) | 1.88 µM (inactive) | 2.72 µM (inactive) | 2.22 µM (inactive) | 2.88 µM (inactive) | 2.3 µM (inactive) | 1.86 µM (inactive) | 18.2 µM (inactive) | 11.7 µM (inactive) | – | – | – | – | – |
| O=C1C=CC=CC2CC=C[C@@H](O)C12 (some centres not stated) | 17.3 µM (inactive) | 65.6 µM (inactive) | 17.3 µM | 15.5 µM (inactive) | 10.4 µM (inactive) | 15.6 µM (inactive) | 13.7 µM (inactive) | 31 µM (inactive) | – | – | 18.8 µM (inactive) | 14 µM (inactive) | 17.8 µM (inactive) | 16.4 µM (inactive) | – | – | – | – | – |
| O=C1CCN2C(=O)CCN12 | > 100 µM (inactive) | > 100 µM (inactive) | – | > 100 µM (inactive) | > 100 µM (inactive) | – | > 100 µM (inactive) | > 100 µM (inactive) | – | – | > 100 µM (inactive) | > 100 µM (inactive) | > 100 µM (inactive) | > 100 µM (inactive) | – | – | – | – | – |
| CCN(CC)c1ccc(/N=C2/C=CC(=O)c3ncccc32)c(C)c1 | 3.92 µM (inactive) | 11 µM (inactive) | 3.08 µM | 2.19 µM (inactive) | 13.8 µM (inactive) | 1.91 µM (inactive) | – | 2.11 µM (inactive) | 3.48 µM (inactive) | 14.8 µM (inactive) | 2.65 µM (inactive) | 4.38 µM (inactive) | 5.06 µM (inactive) | 16.6 µM (inactive) | – | – | – | – | – |
| C/C(CCN(C)C)=N/O | 0.918 µM (active) | 1.02 µM (active) | 11.7 µM | 0.281 µM (active) | 12.5 µM (inactive) | – | – | < 0.01 µM (active) | 6.05 µM (inactive) | 16.8 µM (inactive) | 0.281 µM (active) | 15.7 µM (inactive) | 1.15 µM (inactive) | 16 µM (inactive) | – | – | – | – | – |
| COC(=O)NC(=O)c1cn(CCCOC(=O)CCCCCCCCC(=O)OCCCn2cc(C(=O)NC(=O)OC)c(=O)[nH]c2=O)c(=O)[nH]c1=O | > 100 µM (inactive) | 28.8 µM (inactive) | > 100 µM | > 100 µM (inactive) | > 100 µM (inactive) | > 100 µM (inactive) | – | > 100 µM (inactive) | 29.4 µM (inactive) | 22.3 µM (inactive) | > 100 µM (inactive) | > 100 µM (inactive) | > 100 µM (inactive) | > 100 µM (inactive) | – | – | – | – | – |
| N#Cc1c(N2CCCC2)nsc1Nc1ccc(F)cc1 | > 100 µM (inactive) | 97.1 µM (inactive) | > 100 µM | > 100 µM (inactive) | > 100 µM (inactive) | > 100 µM (inactive) | 57.9 µM (inactive) | > 100 µM (inactive) | > 100 µM (inactive) | – | > 100 µM (inactive) | > 100 µM (inactive) | > 100 µM (inactive) | > 10 µM (inactive) | > 100 µM (inactive) | > 100 µM (inactive) | > 100 µM (inactive) | > 100 µM (inactive) | > 100 µM (inactive) |
| [O-][n+]1c2cc(CN3CCOCC3)c(CN3CCOCC3)cc2[n+]([O-])c2c(O)cccc21 | 4.07 µM (inactive) | – | 3.44 µM | 0.807 µM (active) | 4.4 µM (inactive) | 4.02 µM (inactive) | 1.88 µM (inactive) | 4.29 µM (inactive) | 0.968 µM (active) | 3.46 µM (inactive) | 0.193 µM (active) | 6.24 µM (inactive) | 4.21 µM (inactive) | 3.72 µM (inactive) | – | – | – | – | – |
| CCOc1c(Br)cc(Br)cc1C=C(C#N)C#N | 2.77 µM (inactive) | – | 2.96 µM | 0.227 µM (active) | 5.93 µM (inactive) | 1.66 µM (inactive) | – | > 10 µM (inactive) | > 10 µM (inactive) | 7.62 µM (inactive) | 0.916 µM (active) | – | 6.08 µM (inactive) | – | – | 3.67 µM (inactive) | – | 1.27 µM (inactive) | > 10 µM (inactive) |
| CC(=O)NNc1nc(C)c(C(=O)/C=C/c2ccc(Cl)cc2)s1 | > 100 µM (inactive) | > 100 µM (inactive) | – | > 100 µM (inactive) | > 100 µM (inactive) | > 100 µM (inactive) | > 100 µM (inactive) | – | > 100 µM (inactive) | > 100 µM (inactive) | – | > 100 µM (inactive) | > 100 µM (inactive) | > 100 µM (inactive) | – | – | – | – | – |
| O=c1c2cc(Br)cc(Br)c2[nH]c(=S)n1-c1ccccc1 | > 100 µM (inactive) | 54.5 µM (inactive) | 90.2 µM | – | > 100 µM (inactive) | 75.2 µM (inactive) | – | 86.3 µM (inactive) | – | 32.1 µM (inactive) | – | > 100 µM (inactive) | 91.2 µM (inactive) | 40.5 µM (inactive) | – | – | – | – | – |
| CCOC(=O)NC(=O)c1cn(CCCO)c(=O)[nH]c1=O | > 100 µM (inactive) | > 100 µM (inactive) | > 100 µM | – | > 100 µM (inactive) | > 100 µM (inactive) | – | > 100 µM (inactive) | – | 45.6 µM (inactive) | – | > 100 µM (inactive) | > 100 µM (inactive) | > 100 µM (inactive) | – | – | – | – | – |
| CN(C)CCNC(=O)c1cccc2c(Nc3ccc(S(=O)(=O)N=C(N)N)cc3)c3ccccc3nc12 | 22.1 µM (inactive) | – | 99.1 µM | 0.684 µM (active) | 31.3 µM (inactive) | 5.94 µM (inactive) | 3.97 µM (inactive) | 13.5 µM (inactive) | 28 µM (inactive) | 15.1 µM (inactive) | 2.61 µM (inactive) | – | 10.3 µM (inactive) | 10 µM (inactive) | – | – | – | – | – |
| COc1ccc2c(CCNC(C)=O)c(C(C)=O)[nH]c2c1 | > 100 µM (inactive) | 70.5 µM (inactive) | > 100 µM | > 100 µM (inactive) | > 100 µM (inactive) | > 100 µM (inactive) | > 100 µM (inactive) | > 100 µM (inactive) | > 100 µM (inactive) | > 100 µM (inactive) | > 100 µM (inactive) | > 100 µM (inactive) | > 100 µM (inactive) | > 100 µM (inactive) | – | – | – | – | – |
| COc1cc(O)c2c(c1)C(=O)C=C(Cl)C2=O | 94.6 µM (inactive) | > 100 µM (inactive) | > 100 µM | > 100 µM (inactive) | > 100 µM (inactive) | > 100 µM (inactive) | > 100 µM (inactive) | > 100 µM (inactive) | > 100 µM (inactive) | > 100 µM (inactive) | – | > 100 µM (inactive) | > 100 µM (inactive) | 16 µM (inactive) | – | – | – | – | – |
| CSc1nc(NC2OCC(OC(C)=O)C(OC(C)=O)C2OC(C)=O)c2c(OC(C)=O)c(C)c(=O)oc2n1 (configuration not stated) | > 100 µM (inactive) | > 100 µM (inactive) | > 100 µM | > 100 µM (inactive) | > 100 µM (inactive) | > 100 µM (inactive) | – | > 100 µM (inactive) | > 100 µM (inactive) | > 100 µM (inactive) | – | > 100 µM (inactive) | > 100 µM (inactive) | > 100 µM (inactive) | – | – | – | – | – |
| CC1=C(C)C(=O)c2c(cc3ccc4ccccc4n23)C1=O | > 100 µM (inactive) | – | > 100 µM | > 100 µM (inactive) | > 100 µM (inactive) | > 100 µM (inactive) | – | > 100 µM (inactive) | > 100 µM (inactive) | > 100 µM (inactive) | > 100 µM (inactive) | – | > 100 µM (inactive) | > 100 µM (inactive) | – | – | – | – | – |
| CSc1nc2[nH]c(=O)c(C)nc2c(=O)[nH]1 | > 100 µM (inactive) | > 100 µM (inactive) | > 100 µM | > 100 µM (inactive) | > 100 µM (inactive) | > 100 µM (inactive) | > 100 µM (inactive) | > 100 µM (inactive) | > 100 µM (inactive) | > 100 µM (inactive) | > 100 µM (inactive) | > 100 µM (inactive) | > 100 µM (inactive) | > 100 µM (inactive) | – | – | – | – | – |
| COC(=O)C1C(=O)O[C@@H](c2ccc(OC)cc2)C1C(=O)OC (some centres not stated) | > 100 µM (inactive) | > 100 µM (inactive) | – | – | > 100 µM (inactive) | > 100 µM (inactive) | – | > 100 µM (inactive) | > 100 µM (inactive) | > 100 µM (inactive) | > 100 µM (inactive) | > 100 µM (inactive) | > 100 µM (inactive) | > 100 µM (inactive) | – | – | – | – | – |
| CC1CCP(=O)(c2ccccc2)CC1 (configuration not stated) | > 100 µM (inactive) | > 100 µM (inactive) | > 100 µM | > 100 µM (inactive) | > 100 µM (inactive) | > 100 µM (inactive) | – | > 100 µM (inactive) | > 100 µM (inactive) | > 100 µM (inactive) | – | > 100 µM (inactive) | > 100 µM (inactive) | > 100 µM (inactive) | – | – | – | – | – |
| O=C1Nc2ccccc2/C1=N/NC(=O)c1ccccc1O | 21.8 µM (inactive) | – | 32.6 µM | 27.7 µM (inactive) | 33.7 µM (inactive) | 48.4 µM (inactive) | 39.7 µM (inactive) | 75.5 µM (inactive) | 16.6 µM (inactive) | 19.8 µM (inactive) | – | 44 µM (inactive) | 36.1 µM (inactive) | 28.2 µM (inactive) | – | – | – | – | – |
| O=C(O)c1ccccc1NS(=O)(=O)c1ccc([N+](=O)[O-])cc1 | > 100 µM (inactive) | > 100 µM (inactive) | > 100 µM | – | > 100 µM (inactive) | > 100 µM (inactive) | > 100 µM (inactive) | > 100 µM (inactive) | > 100 µM (inactive) | > 100 µM (inactive) | – | > 100 µM (inactive) | > 100 µM (inactive) | > 100 µM (inactive) | – | – | – | – | – |
